Test results taken from ChEMBL document CHEMBL1158091, “Amphimedosides, 3-alkylpyridine glycosides from a marine sponge Amphimedon sp” (J Nat Prod, 2006).
≈ marks a conversion by molar mass, not a printed value.

Test system: P388
Assay: Cytotoxicity against mouse P388 cells by MTT assay
Format: functional, cell-based

`CON(CCCCCCCCCCC#CCCCCc1cccnc1)[C@@H]1O[C@H](CO)[C@@H](O)[C@H](O)[C@H]1O` [AMPHIMEDOSIDE A] and `CON(CCCCCCCCC#CCCCCc1cccnc1)[C@@H]1O[C@H](CO)[C@@H](O)[C@H](O)[C@H]1O` [AMPHIMEDOSIDE B] are the same in IC50: 11 mg/L (≈ 21.7 µM) for the first, 11 mg/L (≈ 23 µM) for the second.

Going from `CON(CCCCCCCCCCC#CCCc1cccnc1)[C@@H]1O[C@H](CO)[C@@H](O)[C@H](O)[C@H]1O` [AMPHIMEDOSIDE C] to `CON(CCCC/C=C\CCCCCCCCc1cccnc1)[C@@H]1O[C@H](CO)[C@@H](O)[C@H](O)[C@H]1O` [AMPHIMEDOSIDE E], the IC50 falls from 5 mg/L (≈ 10.4 µM) to 2.2 mg/L (≈ 4.58 µM) (2.3-fold).

Compound `CON(CC(C)CCCCCCCCCCc1cccnc1)[C@@H]1O[C@H](CO)[C@@H](O)[C@H](O)[C@H]1O` (stereo not given in full) [AMPHIMEDOSIDE D] has an IC50 of 0.45 mg/L (≈ 0.96 µM).
